Source: ChEMBL document CHEMBL1124124, “Synthesis and interaction with uridine phosphorylase of 5'-deoxy-4',5-difluorouridine, a new prodrug of 5-fluorouracil” (J Med Chem, 1988)

What was measured:
[1] = Half life at pH 7.5; type: ADME; settings: buffer
[2] = Half life at pH 1; type: ADME; settings: buffer
L1210 = assay: Inhibition of cell growth of L1210 mouse Leukemia cells; type: functional, cell-based
[3] = Half life at pH 7.5; Not detectable hydrolysis after 7 days; type: ADME; settings: buffer, pH 7.5, 168 h

Compound | half-life [1] [h] | half-life [2] [h] | IC50 (L1210) [nM] | T1/2 [3]
C[C@@]1(F)OC(n2cc(F)c(=O)[nH]c2=O)[C@H](O)[C@@H]1O (some centres not stated) | 12 | 0.5 | 300 | 
C[C@H]1O[C@@H](n2cc(F)c(=O)[nH]c2=O)[C@H](O)[C@@H]1O [DOXIFLURIDINE] |  | 250 | 3000 | No detectable hydrolysis
O=c1[nH]cc(F)c(=O)[nH]1 [FLUOROURACIL] |  |  | 300 | 
